In ChEMBL document CHEMBL4706702 (Bioorg Med Chem, 2021):
Activity calls are given as the source filed them. No cut-off for these calls is given here.

Columns and labels:
[1] = Antioxidant activity assessed as inhibition of DPPH radical activity at 100 uM incubated for 20 mins by spectrophotometric method relative to control; assay type: functional
[2] = biological target: T1, Mushroom tyrosinase (Agaricus bisporus) (UniProt O42713+Q00024+C7FF04+C7FF05); assay: Inhibition of mushroom tyrosinase using L-DOPA as substrate at 0.5 uM preincubated for 20 mins followed by substrate addition and measured after 10 mins relative to control; conditions: time 30.0 min
Mushroom tyrosinase [3] = biological target: T2, Mushroom tyrosinase (Agaricus bisporus, UniProt O42713+Q00024+C7FF04+C7FF05); assay: Inhibition of mushroom tyrosinase using L-DOPA as substrate preincubated for 20 mins followed by substrate addition and measured after 10 mins
[4] = biological target: T1, Mushroom tyrosinase (Agaricus bisporus); assay: Inhibition of mushroom tyrosinase using L-DOPA as substrate at 10 uM preincubated for 20 mins followed by substrate addition and measured after 10 mins relative to control; conditions: time 30.0 min
[5] = biological target: T1, Mushroom tyrosinase (Agaricus bisporus); assay: Potency index, ratio of kojic acid IC50 to test compound IC50 for inhibition of mushroom tyrosinase using L-DOPA as substrate
B16-F10 [6] = assay: Cytotoxicity against mouse B16F10 cells assessed as reduction in cell viability at 2 to 4 uM after 48 hrs by MTT assay; assay type: cell-based; conditions: b16-f10, 48 h, dose 2-4 µM
[7] = biological target: T3, Tyrosinase (Mus musculus) (UniProt P11344); assay: Inhibition of tyrosinase in mouse B16F10 cells assessed reduction in melanin level at 2 uM after 24 hrs; assay type: cell-based; conditions: B16-F10
T3 sequence (whole entry): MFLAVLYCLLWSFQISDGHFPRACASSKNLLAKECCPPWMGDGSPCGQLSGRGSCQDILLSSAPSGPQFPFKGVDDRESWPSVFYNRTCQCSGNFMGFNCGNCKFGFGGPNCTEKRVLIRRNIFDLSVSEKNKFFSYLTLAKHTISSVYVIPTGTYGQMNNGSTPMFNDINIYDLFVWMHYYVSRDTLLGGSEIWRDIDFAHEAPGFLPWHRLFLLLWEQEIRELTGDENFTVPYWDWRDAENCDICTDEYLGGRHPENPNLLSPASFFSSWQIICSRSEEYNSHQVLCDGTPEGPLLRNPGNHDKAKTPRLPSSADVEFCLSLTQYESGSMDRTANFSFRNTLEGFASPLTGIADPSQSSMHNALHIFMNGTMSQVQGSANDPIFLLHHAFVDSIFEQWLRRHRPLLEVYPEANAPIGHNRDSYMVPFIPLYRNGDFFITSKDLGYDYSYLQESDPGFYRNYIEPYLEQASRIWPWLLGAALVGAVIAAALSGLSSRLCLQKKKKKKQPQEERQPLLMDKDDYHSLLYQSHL

B16-F10 [8] = assay: Cytotoxicity against mouse B16F10 cells assessed as reduction in cell viability at 8 uM after 48 hrs by MTT assay; assay type: cell-based; conditions: b16-f10, 48 h
[9] = biological target: T3, Tyrosinase (Mus musculus); assay: Inhibition of tyrosinase in mouse B16F10 cells assessed melanin level at 8 uM after 24 hrs relative to control; assay type: cell-based; design: scale not given: the % may be the effect or the level left; conditions: B16-F10
[10] = tested on: O=c1cc(CSc2nc3ccccc3c(=O)n2Cc2ccccn2)occ1O; assay: Uncompetitive inhibition of mushroom tyrosinase assessed as Vmax at 0.5 uM using L-DOPA as substrate preincubated for 10 mins followed by substrate addition and measured after 10 mins by Lineweaver-Burk plot analysis (reference value: […] OD/min); conditions: Agaricus bisporus, time 20.0 min
[11] = tested on: O=c1cc(CSc2nc3ccccc3c(=O)n2Cc2ccccn2)occ1O; assay: Uncompetitive inhibition of mushroom tyrosinase assessed as Km at 10 uM using L-DOPA as substrate preincubated for 10 mins followed by substrate addition and measured after 10 mins by Lineweaver-Burk plot analysis (reference value: […] uM); conditions: Agaricus bisporus, time 20.0 min
[12] = tested on: O=c1cc(CSc2nc3ccccc3c(=O)n2Cc2ccccn2)occ1O; assay: Uncompetitive inhibition of mushroom tyrosinase assessed as Km at 2.5 uM using L-DOPA as substrate preincubated for 10 mins followed by substrate addition and measured after 10 mins by Lineweaver-Burk plot analysis (reference value: […] uM); conditions: Agaricus bisporus, time 20.0 min
[13] = tested on: O=c1cc(CSc2nc3ccccc3c(=O)n2Cc2ccccn2)occ1O; assay: Uncompetitive inhibition of mushroom tyrosinase assessed as Vmax at 2.5 uM using L-DOPA as substrate preincubated for 10 mins followed by substrate addition and measured after 10 mins by Lineweaver-Burk plot analysis (reference value: […] OD/min); conditions: Agaricus bisporus, time 20.0 min
[14] = tested on: O=c1cc(CSc2nc3ccccc3c(=O)n2Cc2ccccn2)occ1O; assay: Uncompetitive inhibition of mushroom tyrosinase assessed as Km at 0.5 uM using L-DOPA as substrate preincubated for 10 mins followed by substrate addition and measured after 10 mins by Lineweaver-Burk plot analysis (reference value: […] uM); conditions: Agaricus bisporus, time 20.0 min
[15] = tested on: O=c1cc(CSc2nc3ccccc3c(=O)n2Cc2ccccn2)occ1O; assay: Uncompetitive inhibition of mushroom tyrosinase assessed as Vmax at 10 uM using L-DOPA as substrate preincubated for 10 mins followed by substrate addition and measured after 10 mins by Lineweaver-Burk plot analysis (reference value: […] OD/min); conditions: Agaricus bisporus, time 20.0 min
Mushroom tyrosinase [16] = biological target: T2, Mushroom tyrosinase; assay: Inhibition of mushroom tyrosinase using L-DOPA as substrate preincubated for 10 mins followed by substrate addition and measured after 20 mins

Mushroom tyrosinase (Agaricus bisporus) (from UniProt O42713+Q00024+C7FF04+C7FF05), sequence (C7FF05 whole entry, looked up): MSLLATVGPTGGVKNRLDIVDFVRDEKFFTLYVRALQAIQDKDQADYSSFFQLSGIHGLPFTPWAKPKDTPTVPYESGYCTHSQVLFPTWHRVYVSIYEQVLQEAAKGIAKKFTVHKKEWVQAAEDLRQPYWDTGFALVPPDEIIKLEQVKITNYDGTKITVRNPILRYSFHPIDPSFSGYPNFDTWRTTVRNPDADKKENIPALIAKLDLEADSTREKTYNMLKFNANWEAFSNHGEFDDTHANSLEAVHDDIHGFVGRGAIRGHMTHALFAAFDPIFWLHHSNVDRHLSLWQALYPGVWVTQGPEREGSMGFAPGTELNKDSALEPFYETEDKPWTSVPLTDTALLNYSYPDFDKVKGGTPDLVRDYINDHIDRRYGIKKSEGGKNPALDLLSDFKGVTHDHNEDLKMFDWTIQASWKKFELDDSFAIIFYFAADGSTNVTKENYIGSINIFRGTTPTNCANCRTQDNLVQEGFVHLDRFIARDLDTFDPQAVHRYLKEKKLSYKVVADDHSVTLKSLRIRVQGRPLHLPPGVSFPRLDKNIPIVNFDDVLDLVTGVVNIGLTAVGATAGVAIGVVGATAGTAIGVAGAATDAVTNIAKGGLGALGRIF
Mushroom tyrosinase (Agaricus bisporus) (from UniProt O42713+Q00024+C7FF04+C7FF05), sequence (C7FF04 whole entry, looked up): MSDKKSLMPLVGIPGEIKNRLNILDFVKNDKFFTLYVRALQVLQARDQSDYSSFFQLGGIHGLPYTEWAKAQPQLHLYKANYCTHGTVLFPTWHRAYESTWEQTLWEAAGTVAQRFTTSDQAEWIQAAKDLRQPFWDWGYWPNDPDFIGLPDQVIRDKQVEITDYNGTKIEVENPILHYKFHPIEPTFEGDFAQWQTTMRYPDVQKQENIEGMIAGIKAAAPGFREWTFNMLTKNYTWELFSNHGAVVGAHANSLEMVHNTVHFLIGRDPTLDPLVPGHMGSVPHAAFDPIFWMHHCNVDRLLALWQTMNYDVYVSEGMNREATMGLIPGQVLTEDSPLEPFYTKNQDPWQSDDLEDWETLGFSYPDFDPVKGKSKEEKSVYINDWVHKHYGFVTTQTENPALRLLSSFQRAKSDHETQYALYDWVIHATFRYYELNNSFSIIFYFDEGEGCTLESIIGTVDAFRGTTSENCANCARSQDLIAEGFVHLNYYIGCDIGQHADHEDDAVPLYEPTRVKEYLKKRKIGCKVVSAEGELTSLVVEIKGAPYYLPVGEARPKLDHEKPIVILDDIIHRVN
Mushroom tyrosinase (Agaricus bisporus) (from UniProt O42713+Q00024+C7FF04+C7FF05), sequence (Q00024 whole entry, looked up): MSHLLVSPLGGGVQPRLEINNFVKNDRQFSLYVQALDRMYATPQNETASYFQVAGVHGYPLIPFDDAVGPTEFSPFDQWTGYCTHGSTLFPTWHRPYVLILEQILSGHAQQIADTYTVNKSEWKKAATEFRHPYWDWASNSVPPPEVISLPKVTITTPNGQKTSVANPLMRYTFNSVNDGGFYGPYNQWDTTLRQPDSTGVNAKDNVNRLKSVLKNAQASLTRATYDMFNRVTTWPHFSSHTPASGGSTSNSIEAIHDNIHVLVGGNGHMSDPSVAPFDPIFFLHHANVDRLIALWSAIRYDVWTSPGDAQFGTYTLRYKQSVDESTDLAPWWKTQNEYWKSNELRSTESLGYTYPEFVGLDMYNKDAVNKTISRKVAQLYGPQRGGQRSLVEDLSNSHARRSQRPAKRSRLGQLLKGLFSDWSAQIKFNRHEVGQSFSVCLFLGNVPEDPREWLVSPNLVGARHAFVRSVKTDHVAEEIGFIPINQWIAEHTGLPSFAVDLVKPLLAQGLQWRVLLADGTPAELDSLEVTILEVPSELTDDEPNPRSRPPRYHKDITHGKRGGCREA
Mushroom tyrosinase (Agaricus bisporus) (from UniProt O42713+Q00024+C7FF04+C7FF05), sequence (O42713 whole entry, looked up): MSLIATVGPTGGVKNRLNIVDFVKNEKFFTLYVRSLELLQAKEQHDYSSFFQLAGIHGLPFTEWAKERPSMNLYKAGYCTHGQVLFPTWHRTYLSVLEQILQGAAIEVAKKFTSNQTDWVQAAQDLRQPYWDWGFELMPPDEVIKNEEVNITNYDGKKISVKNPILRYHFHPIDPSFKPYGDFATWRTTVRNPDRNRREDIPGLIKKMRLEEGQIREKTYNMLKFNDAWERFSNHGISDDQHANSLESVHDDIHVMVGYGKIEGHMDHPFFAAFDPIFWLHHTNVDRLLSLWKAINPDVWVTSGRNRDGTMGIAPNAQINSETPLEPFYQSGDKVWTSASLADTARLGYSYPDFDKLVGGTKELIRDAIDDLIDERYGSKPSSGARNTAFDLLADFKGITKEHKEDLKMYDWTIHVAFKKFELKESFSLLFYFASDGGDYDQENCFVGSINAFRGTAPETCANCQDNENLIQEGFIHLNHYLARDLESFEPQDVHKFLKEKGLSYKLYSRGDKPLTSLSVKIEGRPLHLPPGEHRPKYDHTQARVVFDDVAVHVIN

COc1ccc(-n2c(SCc3cc(=O)c(O)co3)nc3ccccc3c2=O)cc1
inhibition [1]: 27.1%
inhibition [2]: 22.1%
IC50 (Mushroom tyrosinase [3]): 2.4 µM
inhibition [4]: 83.5%

O=c1cc(CSc2nc3ccccc3c(=O)n2C2CC2)occ1O
inhibition [1]: 24.5%
inhibition [2]: 23.6%
IC50 (Mushroom tyrosinase [3]): 2.1 µM
inhibition [4]: 82.5%
Ratio IC50 [5]: 4

O=c1cc(CSc2nc3ccccc3c(=O)n2Cc2ccccn2)occ1O
Activity (B16-F10 [6]): Non-Toxic
inhibition [7]: Active
inhibition [1]: 42.6%
Activity (B16-F10 [8]): Toxic
inhibition [2]: 54.5%
IC50 (Mushroom tyrosinase [3]): 0.46 µM
inhibition [4]: 90.3%
Activity [9]: 75%

Mushroom tyrosinase (Agaricus bisporus) (from UniProt O42713+Q00024+C7FF04+C7FF05)
Vmax (optical density/minute) [10]: 0.27
Km [11]: 0.92 µM
Km [12]: 1.15 µM
Vmax (optical density/minute) [13]: 0.15
Km [14]: 1.68 µM
Vmax (optical density/minute) [15]: 0.081

O=c1cc(CSc2nc3ccccc3c(=O)n2Cc2ccc(F)cc2)occ1O
inhibition [1]: 32.6%
inhibition [2]: 32.4%
IC50 (Mushroom tyrosinase [3]): 1.56 µM
inhibition [4]: 92%

O=c1cc(CSc2nc3ccccc3c(=O)n2Cc2ccccc2)occ1O
inhibition [1]: 27.9%
inhibition [2]: 42.5%
IC50 (Mushroom tyrosinase [3]): 1.42 µM
inhibition [4]: 94.1%

O=c1cc(CSc2nc3ccccc3c(=O)n2-c2ccccc2)occ1O
inhibition [1]: 31.4%
inhibition [2]: 43%
IC50 (Mushroom tyrosinase [3]): 1.88 µM
inhibition [4]: 91.7%

O=c1cc(CSc2nc3ccccc3c(=O)n2-c2ccccn2)occ1O
Activity (B16-F10 [6]): Non-Toxic
inhibition [7]: Active
inhibition [1]: 33.8%
Activity (B16-F10 [8]): Toxic
inhibition [2]: 50.5%
IC50 (Mushroom tyrosinase [3]): 0.5 µM
inhibition [4]: 90.9%
Activity [9]: 69%

O=c1cc(CSc2nc3ccccc3c(=O)n2-c2ccc(Cl)cc2)occ1O
inhibition [1]: 32.6%
inhibition [2]: 49.5%
IC50 (Mushroom tyrosinase [3]): 0.5 µM
inhibition [4]: 94.2%

Cc1ccc(-n2c(SCc3cc(=O)c(O)co3)nc3ccccc3c2=O)cc1
inhibition [1]: 33.3%
inhibition [2]: 11.4%
IC50 (Mushroom tyrosinase [3]): 5.32 µM
inhibition [4]: 77.3%

O=c1c(O)c(-c2ccc(O)c(O)c2)oc2cc(O)cc(O)c12
inhibition [1]: 4.62%

CC(C)n1c(SCc2cc(=O)c(O)co2)nc2ccccc2c1=O
inhibition [1]: 32.6%
inhibition [2]: 38.6%
IC50 (Mushroom tyrosinase [3]): 1.44 µM
inhibition [4]: 91.2%

CCCn1c(SCc2cc(=O)c(O)co2)nc2ccccc2c1=O
inhibition [1]: 22.6%
inhibition [2]: 24.5%
IC50 (Mushroom tyrosinase [3]): 2.31 µM
inhibition [4]: 90.5%

O=c1cc(CSc2nc3ccccc3c(=O)n2Cc2ccncc2)occ1O
inhibition [1]: 39%
inhibition [2]: 15.9%
IC50 (Mushroom tyrosinase [3]): 2.2 µM
inhibition [4]: 88.5%

COc1ccc(-n2c(SCc3cc(=O)c(O)co3)nc3ccccc3c2=O)cc1OC
inhibition [1]: 24.5%
inhibition [2]: 40.1%
IC50 (Mushroom tyrosinase [3]): 2.12 µM
inhibition [4]: 98.8%

O=C(Nn1c(-c2ccccc2O)nc2ccccc2c1=O)c1ccco1
IC50 (Mushroom tyrosinase [16]): 0.499 µM

O=c1cc(CSc2nc3ccccc3c(=O)n2-c2ccc(Br)cc2)occ1O
inhibition [1]: 33.3%
inhibition [2]: 40.1%
IC50 (Mushroom tyrosinase [3]): 1.48 µM
inhibition [4]: 71.7%

C=CCn1c(SCc2cc(=O)c(O)co2)nc2ccccc2c1=O
inhibition [2]: 32.4%
IC50 (Mushroom tyrosinase [3]): 1.56 µM
inhibition [4]: 92%

COc1cccc(C(=O)NN2C(=O)c3ccccc3NC2c2ccc(F)cc2)c1 (configuration not stated)
IC50 (Mushroom tyrosinase [16]): 0.006 µM
